Source: the NIST ThermoML archive (doi:10.1016/j.fluid.2007.03.013)
Numbers after ± are expanded uncertainties.

Assay: refractive index (Na D-line) (dimensionless)
Conditions: 293.1 K; 101.33 kPa; Liquid; Standard Abbe refractometry

| refractive index | SMILES |
| --- | --- |
| 1.484 ± 0.0007 | O=CN1CCOCC1 [N-formylmorpholine] |
| 1.423 ± 0.0007 | CC1CCCCC1 [methylcyclohexane] |
